Biological target: P-glycoprotein 1 and 3 (MDR1a/MDR1b) (Mus musculus, UniProt P21447+P06795)
Assay: TP_TRANSPORTER: increase in brain concentration in mdr1a/1b(-/-) mouse
Format: functional, organism-based
Conditions: in vivo

In the case of `COc1ccc(N(C)S(C)(=O)=O)cc1CN[C@H]1CCCN[C@H]1c1ccccc1`, the Activity is reported as “substrate [+]”.
